Results taken from US20180127748A1, “METHODS RELATING TO THE PREVENTION AND TREATMENT OF DRUG RESISTANCE” (THE GENERAL HOSPITAL CORPORATION, priority 2015, published 2018).
Entries after “also recorded” stand apart in the source; their conditions may differ.

What was measured:
[1] = test system: RPE cells; experiment: Screen of chemical and metabolic stresses for site-specific copy gain (FISH); format: cell-based, human; conditions: 24 h treatment: 60 μM H2O2, 2 μg/ml Tunicamycin, 2 mM DTT, 5 mM NAC, 1 μM DMNQ
Experimental: Cells were treated with the following chemical and metabolic stresses for 24 hours at doses used in the literature: 2 μg/ml Tunicamycin (TU, Abcam), 60 μM H2O2(Thermo Fisher Scientific), reduced-serum DMEM (0.1% FBS), Glucose-free DMEM (No Gluc, GIBCO), 2 mM DTT (Sigma), 5 mM N-acetyl Cysteine (NAC, Sigma), and 1 μM 2,3-Dimethoxy-1,4-naphthoquinone (DMNQ, Sigma). For heat shock (HS) treatment, cells were incubated at 43° C. for 30 minutes and returned to 37° C. for 24 hours prior to collection.
FISH was performed as described in (Manning et al. 2010; Black et al. 2013). For RPE cells, copy gain was scored as any cell with 3 or more distinct foci. Approximately 100 cells for each replicate were scored for all experiments. All FISH experiments include at least 2 biological replicates. For each experiment at least one replicate includes FACS and western blot from the same cells used for FISH. For knockdown experiments, at least two different siRNA were used for each target. Results are presented as the average from both of the independent siRNAs.
FISH was performed as described in (Manning et al. 2010; Black et al. 2013). Probes for 1q12h, 1q telomere, chromosome 8 centromere (alpha satellite), and X centromere (alpha satellite) were purchased from Rainbow Scientific. Probes for Zebrafish BCL9 (CH73-15J19) and Zebrafish IGBP1 (CH73-223D24) were purchased as BAC clones from Children's Hospital Oakland Research Institute (CHORI BacPac) clone repository. Probes for 1q21.2 (BCL9) and 1q23.3 were purchased from Agilent (SureFISH). BACS were prepared utilizing PureLink HiPure™ Plasmid Filter Maxiprep kit (Life Technologies) using the recommended modified wash buffer. Probes were nick translated (Abbot Molecular Kit) in the presence of fluorescently labeled dTTP (Enzo Life Science). Images of multiple planes of fields of nuclei were acquired on an Olympus IX81™ Spinning Disk Microscope and analyzed using Slidebook 5.0™ software. We used a conservative scoring metric for copy gain. Any foci that were touching were scored as a single copy to prevent increased numbers due to normally replicated foci. For RPE cells, copy gain was scored as any cell with 3 or more distinct foci. For 293T cells, copy gain was scored for any cell with 5 or more distinct foci. For UMRC2 cells, copy gain was scored for any cell with 6 or more foci. For SK-N-AS cells, copy gain was scored for any cell with 5 or more foci. For MDA-MB-468 cells, copy gain was scored for any cell with 5 or more foci. For MDA-MB-231 cells, copy gain was scored for any cell with 7 or more foci. Approximately 100 cells for each replicate were scored for all experiments. All FISH experiments include at least 2 biological replicates. For each experiment, at least one replicate includes FACS and western blot from the same cells used for FISH. For knockdown experiments, at least two different siRNA were used for each target. Results are presented as the average from both of the independent siRNAs.

[2] = test system: RPE cells; experiment: FISH for hypoxia-dependent site-specific copy gain; format: cell-based, human
Experimental: Cells were plated onto culture dishes and allowed to adhere for 20-24 hours in normoxia (5% CO2, 21% O2, and 74% N2). For hypoxic treatment, cells were maintained in a HERA™ Cell 150 incubator (Thermo Scientific) flushed with 5% CO2, 1% O2, and balanced with N2 for the duration of the experiment. Incubator calibrations and verifications were carried out by Bianchi Associates Calibrations/Verifications.
For G1/S synchronization, cells were treated with 2 mM hydroxyurea (HU, Sigma) for 20 hours. To release, cells were washed twice with culture medium pre-conditioned in normoxia or hypoxia, and supplied with fresh pre-conditioned media. For JIB-04 treatment, normoxic cells were pre-treated with 62.5 nM JIB-04 (Xcessbio) for 24 hours, and then treated again with JIB-04 and either transferred to 1% O2 or maintained in normoxia for an additional 24 hours. […]
FISH was performed as described in (Manning et al. 2010; Black et al. 2013). For RPE cells, copy gain was scored as any cell with 3 or more distinct foci. Approximately 100 cells for each replicate were scored for all experiments. […]
FISH was performed as described in (Manning et al. 2010; Black et al. 2013). […] Images of multiple planes of fields of nuclei were acquired on an Olympus IX81™ Spinning Disk Microscope and analyzed using Slidebook 5.0™ software. […] Any foci that were touching were scored as a single copy to prevent increased numbers due to normally replicated foci. For RPE cells, copy gain was scored as any cell with 3 or more distinct foci. For 293T cells, copy gain was scored for any cell with 5 or more distinct foci. For UMRC2 cells, copy gain was scored for any cell with 6 or more foci. For SK-N-AS cells, copy gain was scored for any cell with 5 or more foci. For MDA-MB-468 cells, copy gain was scored for any cell with 5 or more foci. For MDA-MB-231 cells, copy gain was scored for any cell with 7 or more foci. Approximately 100 cells for each replicate were scored for all experiments. […]

[3] = test system: KDM4A; experiment: Western blot of KDM4A protein levels in hypoxia; format: cell-based, human; conditions: RPE cells, 1% O2; for KDM4A stabilization / protein levels in hypoxia: 2 mM succinate
Experimental: Western blots were performed as in (Black et al. 2010).
Western Blots. Western blots were performed as in (Black et al. 2010). Briefly, adherent cells were either scraped directly into PBS, or washed with PBS, trypsinized and collected by centrifuging at 2,000 RPM for 5 minutes. For preparation of whole-cell lysates, cell pellets were washed once in ice-cold PBS and resuspended in RIPA lysis buffer [50 mM Tris pH 7.4, 150 mM NaCl, 0.25% Sodium Deoxycholate, 1% NP40, 1 mM EDTA, 10% Glycerol] supplemented with cOmplete protease inhibitor and PhosSTOP phosphatase inhibitor cocktails (Roche). Cells were lysed on ice for 15 minutes and immediately frozen at −80° C. for 10 minutes. Lysates were subsequently sonicated at 70% amplitude for 15 minutes in a QSonica Q700 sonicator and cleared of cell debris by centrifuging at 12,000 RPM for 15 minutes, before being analyzed by western blotting. For HIF1α and HIF2a expression, adherent cells were washed twice with ice-cold PBS and scraped directly in warmed 1× Laemmli buffer. Samples were sonicated at 70% amplitude for 15 minutes in a QSonica Q700™ and boiled at 95° C. for 10 minutes immediately prior to western blotting.

[4] = test system: RPE cells; experiment: Cell cycle analysis by flow cytometry; format: cell-based, human; conditions: for cell cycle progression in hypoxia: 2 mM succinate
Experimental: Asynchronously growing, or G1/S arrested cells were prepared and fixed as in (Black et al. 2010). Cells were stained with 10 μM EdU for 1 hour prior to collection. Cell cycle was analyzed by PI staining or EdU incorporation using Click-IT EdU™ Flow Cytometry Assay Kit (Life Technologies). Flow cytometry of CD4+ T cells and cell cycle distribution were analyzed using a BD FACS ARIA II™.

[5] = test system: KDM4 family; conditions: Wang et al. 2013; cited from earlier work
[6] = biological target: KDM5A (Homo sapiens, UniProt P29375); conditions: Wang et al. 2013; cited from earlier work
Chain of KDM5A (P29375 whole entry, species assumed): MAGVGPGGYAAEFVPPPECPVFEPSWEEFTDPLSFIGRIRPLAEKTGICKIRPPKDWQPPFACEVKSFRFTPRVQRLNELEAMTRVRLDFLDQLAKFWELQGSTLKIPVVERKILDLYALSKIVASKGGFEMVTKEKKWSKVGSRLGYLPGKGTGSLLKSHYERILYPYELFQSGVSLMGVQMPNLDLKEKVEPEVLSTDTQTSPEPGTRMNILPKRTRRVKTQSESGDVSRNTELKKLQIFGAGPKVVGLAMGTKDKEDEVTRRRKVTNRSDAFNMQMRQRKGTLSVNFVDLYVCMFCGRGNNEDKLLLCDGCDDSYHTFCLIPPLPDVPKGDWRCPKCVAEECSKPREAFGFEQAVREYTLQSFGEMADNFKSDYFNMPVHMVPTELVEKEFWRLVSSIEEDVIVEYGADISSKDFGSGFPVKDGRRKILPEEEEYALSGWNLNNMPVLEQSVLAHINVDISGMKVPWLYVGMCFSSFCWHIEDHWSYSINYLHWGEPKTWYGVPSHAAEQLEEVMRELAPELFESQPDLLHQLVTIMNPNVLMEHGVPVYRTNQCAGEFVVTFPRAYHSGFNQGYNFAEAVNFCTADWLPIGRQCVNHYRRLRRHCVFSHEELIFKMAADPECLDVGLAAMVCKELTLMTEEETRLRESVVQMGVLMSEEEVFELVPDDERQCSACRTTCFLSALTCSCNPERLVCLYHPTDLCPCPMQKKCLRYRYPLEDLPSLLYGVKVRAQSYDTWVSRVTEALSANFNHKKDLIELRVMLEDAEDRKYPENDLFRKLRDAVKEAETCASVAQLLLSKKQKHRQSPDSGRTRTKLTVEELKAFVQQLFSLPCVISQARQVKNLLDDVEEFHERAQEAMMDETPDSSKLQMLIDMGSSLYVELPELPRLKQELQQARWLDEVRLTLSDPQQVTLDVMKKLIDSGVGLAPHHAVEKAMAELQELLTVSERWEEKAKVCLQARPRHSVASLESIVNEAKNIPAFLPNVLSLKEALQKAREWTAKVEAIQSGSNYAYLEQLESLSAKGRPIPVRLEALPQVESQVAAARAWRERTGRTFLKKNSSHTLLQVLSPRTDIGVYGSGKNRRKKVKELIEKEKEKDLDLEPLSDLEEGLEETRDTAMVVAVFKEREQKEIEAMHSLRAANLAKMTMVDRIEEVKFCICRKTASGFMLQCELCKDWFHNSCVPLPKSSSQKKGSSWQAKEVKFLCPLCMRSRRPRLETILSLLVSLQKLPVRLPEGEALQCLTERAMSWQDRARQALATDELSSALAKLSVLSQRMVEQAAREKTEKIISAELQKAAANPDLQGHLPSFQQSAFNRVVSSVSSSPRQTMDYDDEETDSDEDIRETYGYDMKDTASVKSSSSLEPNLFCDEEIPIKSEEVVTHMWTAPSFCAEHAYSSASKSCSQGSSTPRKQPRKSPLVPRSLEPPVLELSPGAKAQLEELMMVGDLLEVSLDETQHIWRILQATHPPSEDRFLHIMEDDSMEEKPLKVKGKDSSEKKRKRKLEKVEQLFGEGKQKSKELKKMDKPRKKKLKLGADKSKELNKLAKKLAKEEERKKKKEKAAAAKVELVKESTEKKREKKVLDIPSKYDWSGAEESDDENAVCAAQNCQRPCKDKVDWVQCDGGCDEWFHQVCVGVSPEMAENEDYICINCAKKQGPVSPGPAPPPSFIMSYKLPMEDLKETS

[7] = biological target: KDM6B (Homo sapiens, UniProt O15054); conditions: Wang et al. 2013; cited from earlier work
Chain of KDM6B (O15054 whole entry, species assumed): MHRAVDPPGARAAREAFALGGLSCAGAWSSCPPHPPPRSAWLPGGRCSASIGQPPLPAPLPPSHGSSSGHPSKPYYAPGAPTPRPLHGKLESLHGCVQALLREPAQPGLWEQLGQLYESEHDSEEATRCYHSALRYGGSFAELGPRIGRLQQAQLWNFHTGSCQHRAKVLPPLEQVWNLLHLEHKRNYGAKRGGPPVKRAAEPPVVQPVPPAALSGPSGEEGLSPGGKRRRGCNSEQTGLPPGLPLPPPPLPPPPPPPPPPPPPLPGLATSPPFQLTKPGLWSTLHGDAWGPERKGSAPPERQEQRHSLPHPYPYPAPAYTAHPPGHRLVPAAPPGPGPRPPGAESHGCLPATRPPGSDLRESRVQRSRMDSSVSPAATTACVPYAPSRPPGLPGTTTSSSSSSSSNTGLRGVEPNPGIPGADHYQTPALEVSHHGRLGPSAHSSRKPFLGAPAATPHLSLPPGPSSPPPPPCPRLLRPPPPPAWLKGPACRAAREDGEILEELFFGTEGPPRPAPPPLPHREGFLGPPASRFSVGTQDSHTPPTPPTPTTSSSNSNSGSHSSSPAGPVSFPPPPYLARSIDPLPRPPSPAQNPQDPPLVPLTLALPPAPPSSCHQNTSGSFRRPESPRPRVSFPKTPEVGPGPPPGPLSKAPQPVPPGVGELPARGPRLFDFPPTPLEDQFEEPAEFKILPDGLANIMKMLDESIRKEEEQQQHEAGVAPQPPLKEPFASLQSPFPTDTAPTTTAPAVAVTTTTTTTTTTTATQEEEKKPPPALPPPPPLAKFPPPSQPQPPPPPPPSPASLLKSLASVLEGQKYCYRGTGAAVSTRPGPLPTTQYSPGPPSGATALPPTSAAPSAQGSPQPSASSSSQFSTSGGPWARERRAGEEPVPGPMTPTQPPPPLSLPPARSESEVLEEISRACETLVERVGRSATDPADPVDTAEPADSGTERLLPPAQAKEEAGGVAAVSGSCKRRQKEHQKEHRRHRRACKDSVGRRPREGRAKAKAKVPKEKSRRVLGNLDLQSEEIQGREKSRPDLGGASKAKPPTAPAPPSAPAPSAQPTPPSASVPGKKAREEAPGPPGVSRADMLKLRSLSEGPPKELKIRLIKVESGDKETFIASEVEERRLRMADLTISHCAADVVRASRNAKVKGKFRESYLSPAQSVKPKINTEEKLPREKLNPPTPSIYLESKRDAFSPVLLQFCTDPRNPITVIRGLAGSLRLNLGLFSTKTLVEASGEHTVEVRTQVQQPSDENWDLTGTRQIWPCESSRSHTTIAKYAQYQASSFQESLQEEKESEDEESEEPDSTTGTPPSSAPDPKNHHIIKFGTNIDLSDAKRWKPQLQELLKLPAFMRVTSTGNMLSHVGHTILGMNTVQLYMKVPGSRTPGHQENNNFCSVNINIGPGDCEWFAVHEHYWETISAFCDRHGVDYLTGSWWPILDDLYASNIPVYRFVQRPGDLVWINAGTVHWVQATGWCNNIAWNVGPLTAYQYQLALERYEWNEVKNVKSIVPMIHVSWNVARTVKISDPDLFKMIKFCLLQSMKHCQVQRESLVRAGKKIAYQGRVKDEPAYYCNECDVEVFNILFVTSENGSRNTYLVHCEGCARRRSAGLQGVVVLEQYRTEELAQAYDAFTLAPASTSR

[8] = test system: JmjC-containing proteins; conditions: Smith et al. 2007; Black et al. 2012; cited from earlier work

COC1=C(OC)C(=O)c2ccccc2C1=O [DMNQ, 2,3-Dimethoxy-1,4-naphthoquinone]
site-specific copy gain (FISH for 1q12h, Chr 8, 1q23.3, 1q21.2) [1]: did not induce site-specific copy gain; also recorded: do not induce site-specific copy gains

O[C@@H](CS)[C@@H](O)CS [DTT]
site-specific copy gain (FISH for 1q12h, Chr 8, 1q23.3, 1q21.2) [1]: did not induce site-specific copy gain; also recorded: do not induce site-specific copy gains

OO [H2O2]
site-specific copy gain (FISH for 1q12h, Chr 8, 1q23.3, 1q21.2) [1]: does not promote copy gain

Clc1ccc(N/N=C(\c2ccccc2)c2ccccn2)nc1 [JIB-04]
hypoxia-dependent copy gain of 1q12h (FISH) ([2]; 62.5 nM JIB-04 pre-treated 24 h, treated again, 1% O2 24 h): significantly reduced; also recorded: blocks hypoxia-dependent copy gain
KDM4A protein levels in hypoxia ([3]; JIB-04 62.5 nM): did not substantially alter; also recorded: does not alter KDM4A protein levels
cell cycle profiles in hypoxia ([4]; JIB-04 62.5 nM, 1% O2): did not substantially alter; also recorded: no difference in cell cycle phases
inhibition of the KDM4 family [5]: inhibits
inhibition of KDM5A [6]: inhibits
inhibition of KDM6B [7]: inhibits

CC(=O)N[C@@H](CS)C(=O)O [N-Acetyl Cysteine, N-acetyl Cysteine]
site-specific copy gain (FISH for 1q12h, Chr 8, 1q23.3, 1q21.2) [1]: did not induce site-specific copy gain
site-specific copy gain (FISH for 1q12h, Chr 8, 1q23.3, 1q21.2) ([1]; listed as N-acetyl Cysteine): do not induce site-specific copy gains

O=C(O)CCC(=O)O [succinate]
hypoxia-dependent copy gain of 1q12h (FISH) ([2]; 2 mM succinate, 48 h normoxia then 1% O2 24 h): can be suppressed
hypoxia-dependent copy gain of 1q12h (FISH) ([2]; 2 mM succinate, 48 h normoxia then 1% O2 24 h, listed as Succinate): sufficient to abrogate
KDM4A stabilization / protein levels in hypoxia [3]: does not alter KDM4A protein levels
KDM4A stabilization / protein levels in hypoxia ([3]; listed as Succinate): did not alter
cell cycle progression in hypoxia ([4]; 1% O2): no difference in cell cycle phases
cell cycle progression in hypoxia ([4]; 1% O2, listed as Succinate): did not alter
inhibition of JmjC-containing proteins [8]: can be inhibited

Tunicamycin
site-specific copy gain (FISH for 1q12h, Chr 8, 1q23.3, 1q21.2) [1]: does not promote copy gain
